Laboratory results from patent US20040121474A1, “Detection and evaluation of chemically-mediated and ligand-mediated t-cell activation using optophoretic analysis” (Genoptix, Inc, priority 2002, published 2004).
In brackets after ≈: the same amount, converted by molar mass.

How the values were obtained:
U937 cells = assay: Quantitative determination of PKC activation, escape velocity dose response; format: cell-based; conditions: five hours
Experimental: Optophoretic analysis was used to develop a full dose response curve for U937 cells treated with PMA. U937 cells were incubated with varying amounts of PMA dissolved in DMSO. The following concentrations of PMA were tested: 0.156 ng/ml, 0.312 ng/ml, 0.625 ng/ml, 1.25 ng/ml, 2.5 ng/ml, 5 ng/ml, and no PMA (control). […] Escape velocity measurements were then taken using a 100 mW laser having a beam diameter of 28 pixels. Table 9 reproduced below sets forth the measured escape velocities (μm/sec) for each of the various PMA concentrations.
The method described above may be used to quantitatively determine the level of PKC activation in cells in response to exposure to PKC activating compound using a moving optical gradient. The method includes the steps of first providing a series of cell samples and exposing the series of cell samples to different concentrations of the PKC activating compound. After a period of incubation from about one to several hours, the cells and the optical gradient are moved relative to each other so as to cause displacement of at least some of the cells. Next, the displacement of at least a portion of the displaced cells is measured for each of the different concentrations. […] From the dose response curve, one is able to calculate one or more numerical values that correlate to PKC potency and/or efficacy. For example, the dose response curve can be used to calculate the EC50, Hill slope, or plateau value relative to a standard compound.

HL-60 cells = assay: Escape velocity, differentiation of HL-60 cells; format: cell-based; conditions: 200 ng/ml PMA
Experimental: Initial tests were performed using HL-60 cells treated with PMA. HL-60 cells were seeded at about 1-3×10^6 cells per well in six well plates. The cells were treated with 200 ng/ml PMA while the control cells were treated with ethanol (EtOH) vehicle for four hours at 37° C. After incubation for four hours the treated cells were washed with PBS and re-fed with growth media. The treated HL-60 cells were then allowed to differentiate for 72 hours in normal growth media. After the 72 hour period, the untreated control cells were collected by centrifugation, washed with PBS and pelleted for resuspension at 1.5×10^6 cells/ml in PBS/1% BSA. Treated cells were trypsinized and collected by centrifugation then washed in PBS and pelleted for resuspension at 1×10^6 cells/ml in PBS/1% BSA. The cells were then subjected to Optophoretic analysis by measuring the escape velocities of the treated and control cells. Table 23 shown below illustrates the measured escape velocities of the undifferentiated and differentiated cells at 72 hours post treatment.

## CCCCCCCCCCCCCC(=O)O[C@@H]1[C@@H](C)[C@@]2(O)[C@@H](C=C(CO)C[C@]3(O)C(=O)C(C)=C[C@@H]23)[C@@H]2C(C)(C)[C@]12OC(C)=O [PMA, phorbol 12 myristate 13-acetate]
U937 cells; 1.25 ng/ml PMA
  Escape velocity Average: 17.0 μm/sec
U937 cells; 2.5 ng/ml PMA
  Escape velocity Average: 17.0 μm/sec
U937 cells; 5 ng/ml PMA
  Escape velocity Average: 17.3 μm/sec
U937 cells; .156 ng/ml PMA
  Escape velocity Average: 15.8 μm/sec
U937 cells; .312 ng/ml PMA
  Escape velocity Average: 16.0 μm/sec
U937 cells; .625 ng/ml PMA
  Escape velocity Average: 16.6 μm/sec
U937 cells; Homo sapiens, U-937, 5 h, escape velocity, U937 cells, read-out: EC50 value of the PMA dose response curve (FIG. 53)
  EC50: ~0.625 ng/mL (≈ 1.01 nM)
U937 cells; U937 cells
  PMA concentrations at which a significant shift in escape velocity is seen: exceeding 0.625 ng/ml
HL-60 cells; HL-60 + PMA at 72 hours (differentiated), control 11.9
  Escape velocity Average: 14.0 μm/sec
HL-60 cells; HL-60 cells, 72 hours
  increase in measured escape velocity as compared to the control cells: about 2 μm/se c
